Laboratory results published in the PolyMetriX glass transition set.

With `*/C(C)=C(/*)c1ccc([Si](C)(C)C)cc1` (repeat unit) the glass transition temperature was -5.00 °C.
For `*/C=C/c1cccc(OC(=O)CCCCCCCCC(=O)Oc2cccc(-c3nnc(*)s3)c2)c1` (repeat unit), the glass transition temperature was 41.00 °C.
`*C(=O)Nc1ccc(-c2ccc(NC(=O)N3CC(C)N(*)CC3C)cc2)cc1` (repeat unit) gave a glass transition temperature of 250.00 °C.
For `*C/C=C/COC(=O)C(Cc1ccccc1)NC(=O)CCCCC(=O)NC(Cc1ccccc1)C(=O)O*` (repeat unit), the glass transition temperature was 61.00 °C.
`*CC#C/C(C#CCOC(=O)CCCCCCCCC(=O)O*)=C\c1ccc(C#Cc2ccc(C=C(C#Cc3ccccc3)C#Cc3ccccc3)cc2)cc1` (repeat unit) showed a glass transition temperature of 60.00 °C.
`*CC(F)(F)C(F)(F)C(F)(F)COC(=O)CCCCC(=O)O*` (repeat unit) gave a glass transition temperature of -60.50 °C.
With `*CC(O)COC(=O)CCCCC(=O)OCC(O)COc1ccc(C(=O)Oc2ccc(O*)cc2)cc1` (repeat unit) the glass transition temperature was 37.00 °C.
For `*CC1CCC(CNC(=O)CCCCC(=O)N*)CC1` (repeat unit), the glass transition temperature was 113.00 °C.
For `*CCCC(*)(C)C` (repeat unit), the glass transition temperature was -20.00 °C.
`*CCCC1(C)CCN(C(=O)CCC(=O)N2CCC(*)(C)CC2)CC1` (repeat unit) gave a glass transition temperature of 99.00 °C.
Work on `*CCCC1(C)CCN(C(=O)CCCC(=O)N2CCC(*)(C)CC2)CC1` (repeat unit) yielded a glass transition temperature of 58.00 °C.
Work on `*CCCCCC(*)C` (repeat unit) yielded a glass transition temperature of -66.00 °C.
Molecule `*CCCCCC(*)CCCCCC` (repeat unit) has a glass transition temperature of -76.00 °C.
Molecule `*CCCCCCC(Cl)C(*)Cl` (repeat unit) has a glass transition temperature of -18.00 °C.
With `*CCCCCCC(c1ccc(O)cc1)C(*)c1ccc(O)cc1C` (repeat unit) the glass transition temperature was 18.00 °C.
Work on `*CCCCCCCC(=O)OCC1COC(*)O1` (repeat unit) yielded a glass transition temperature of -23.00 °C.
Work on `*CCCCCCCC(c1ccc(O)cc1)C(*)c1ccc(O)cc1C` (repeat unit) yielded a glass transition temperature of 4.00 °C.
With `*CCCCCCCCCCCNC(=O)CCCCCCCCC(=O)N*` (repeat unit) the glass transition temperature was 40.00 °C.
Molecule `*CCCCCCCCCCNC(=O)CCCCC(=O)N*` (repeat unit) has a glass transition temperature of 45.00 °C.
Work on `*CCCCCCCCCCOC(=O)CCCCCCC(=O)O*` (repeat unit) yielded a glass transition temperature of -22.00 °C.
`*CCCCCCCCCCOC(=O)CCCCCNC(=O)CCCCC(=O)NCCCCCC(=O)O*` (repeat unit) showed a glass transition temperature of -12.00 °C.
Molecule `*CCCCCCCCNC(=O)CCCCCCCCC(=O)N*` (repeat unit) has a glass transition temperature of 54.00 °C.
With `*CCCCCCCCc1nc2cc(NC(=O)CCCCC(=O)Nc3ccc4oc(*)nc4c3)ccc2o1` (repeat unit) the glass transition temperature was 92.00 °C.
In the case of `*CCCCCCCCc1nc2cc(NC(=O)CCCCCCCCC(=O)Nc3ccc4oc(*)nc4c3)ccc2o1` (repeat unit), the glass transition temperature is reported as 93.00 °C.
In the case of `*CCCCCCCNC(=O)CCCCCC(=O)N*` (repeat unit), the glass transition temperature is reported as 55.00 °C.
In the case of `*CCCCCCNC(=O)CCCCCCCC1C(CCCCCCCC(=O)N*)C=CC(CCCCCC)C1CCCCCCCC` (repeat unit), the glass transition temperature is reported as -3.00 °C.
For `*CCCCCCOC(=O)NNC(=O)CCCCCCCCC(=O)NNC(=O)O*` (repeat unit), the glass transition temperature was 45.00 °C.
`*CCCCCCS(=O)(=O)c1ccc(/N=N/c2ccc(N(C)CCCCCC(=O)O*)cc2)cc1` (repeat unit) showed a glass transition temperature of 60.50 °C.
Molecule `*CCCCOC(=O)CCCCC(=O)OCCCCOC(=O)c1ccc(C(=O)O*)cc1` (repeat unit) has a glass transition temperature of -20.00 °C.
With `*CCCCOC(=O)CCCCCCCC(=O)O*` (repeat unit) the glass transition temperature was -62.50 °C.
In the case of `*CCCCOC(=O)CCCCCNC(=O)CCCCC(=O)NCCCCCC(=O)O*` (repeat unit), the glass transition temperature is reported as -15.00 °C.
`*CCCNC(=O)CCCCC(=O)NCCCO*` (repeat unit) gave a glass transition temperature of 34.00 °C.
Work on `*CCCOC(=O)CCCCC(=O)O*` (repeat unit) yielded a glass transition temperature of -55.00 °C.
Molecule `*CCCOC(=O)NNC(=O)CCCCCCCCC(=O)NNC(=O)O*` (repeat unit) has a glass transition temperature of 22.00 °C.
In the case of `*CCCP(CCCNC(=O)CCCCC(=O)N*)c1ccccc1` (repeat unit), the glass transition temperature is reported as 49.00 °C.
`*CCN(CCOC(=O)CCCCC(=O)O*)c1ccc(/C=N/N(c2ccccc2)c2ccccc2)cc1` (repeat unit) showed a glass transition temperature of 54.00 °C.
`*CCNC(=O)CCCCC(=O)N*` (repeat unit) showed a glass transition temperature of 71.00 °C.
`*CCOC(=O)CCCCCC(=O)O*` (repeat unit) gave a glass transition temperature of -46.00 °C.
For `*CCOC(=O)CCCCCCC(=O)OCCOC(=O)c1ccc(C(=O)O*)cc1` (repeat unit), the glass transition temperature was -1.00 °C.
Molecule `*CCOC(=O)CCCCCCCC(=O)O*` (repeat unit) has a glass transition temperature of -45.00 °C.
In the case of `*CCOC(=O)NNC(=O)CCCCCCCCC(=O)NNC(=O)O*` (repeat unit), the glass transition temperature is reported as 63.00 °C.
With `*CCOCCOC(=O)CCCCC(=O)O*` (repeat unit) the glass transition temperature was -51.00 °C.
`*CCOCCOC(=O)CCCCCCC(=O)O*` (repeat unit) showed a glass transition temperature of -66.00 °C.
`*CCOCCOCCOC(=O)CCCCCC(=O)O*` (repeat unit) gave a glass transition temperature of -44.50 °C.
For `*CCc1ccc(CCNC(=O)CCCCCCCCC(=O)N*)cc1` (repeat unit), the glass transition temperature was 105.00 °C.
In the case of `*CNC(=O)CCCCC(=O)NCC1COC(*)CO1` (repeat unit), the glass transition temperature is reported as 93.00 °C.
For `*NC1CCC(CCC2CCC(NC(=O)CCCCCCCCC(*)=O)CC2)CC1` (repeat unit), the glass transition temperature was 116.00 °C.
For `*Nc1ccc(-c2ccc(NC(=O)c3cc(NC(=O)c4ccncc4)cc(C(*)=O)c3)cc2)cc1` (repeat unit), the glass transition temperature was 339.00 °C.
In the case of `*Nc1ccc(CCNC(=O)CCCCC(*)=O)cc1` (repeat unit), the glass transition temperature is reported as 115.00 °C.
With `*Nc1ccc(Cc2ccc(NC(=O)CCCCCCCC(*)=O)cc2)cc1` (repeat unit) the glass transition temperature was 140.00 °C.
Molecule `*Nc1cccc(NC(=O)CCCCC(*)=O)c1` (repeat unit) has a glass transition temperature of 114.2 °C.
`*Nc1cccc(NC(=O)CCCCC(=O)Nc2ccc(C(=O)NC(*)=S)cc2)c1` (repeat unit) showed a glass transition temperature of 267.00 °C.
Molecule `*Nc1cccc(NC(=O)CCCCCCCCC(*)=O)c1` (repeat unit) has a glass transition temperature of 110.00 °C.
Molecule `*OC(=O)C(Cc1ccccc1)NC(=O)CCCCC(=O)NC(Cc1ccccc1)C(=O)OC1COC2C(*)COC12` (repeat unit) has a glass transition temperature of 97.50 °C.
For `*OC(C)CCCCC(*)=O` (repeat unit), the glass transition temperature was -40.00 °C.
Work on `*OC1CCC(OC(=O)CCCCC(*)=O)CC1` (repeat unit) yielded a glass transition temperature of 77.80 °C.
With `*O[Si](C)(C)CCCC(=O)Oc1ccc(/C=N/c2ccc(Oc3ccc(/N=C/c4ccc(OC(=O)CCC[Si](*)(C)C)cc4)cc3)cc2)cc1` (repeat unit) the glass transition temperature was 52.00 °C.
`*O[Si](C)(C)O[Si](C)(C)O[Si](C)(C)O[Si](C)(C)OC(C)CCCCC(*)C` (repeat unit) showed a glass transition temperature of -98.00 °C.
`*O[Si](C)(C)O[Si](C)(C)O[Si](C)(C)O[Si](C)(C)O[Si](C)(C)OC(C)CCCCC(*)C` (repeat unit) showed a glass transition temperature of -104.00 °C.
For `*Oc1c(-c2ccccc2)cc(Cc2cc(-c3ccccc3)c(OC(=O)CCCCC(*)=O)c(-c3ccccc3)c2)cc1-c1ccccc1` (repeat unit), the glass transition temperature was 115.00 °C.
With `*Oc1ccc(/C(=C/c2ccc(-c3ccc(/C=C(\c4ccccc4)c4ccc(OC(=O)CCCCC(*)=O)cc4)cc3)cc2)c2ccccc2)cc1` (repeat unit) the glass transition temperature was 128.00 °C.
Work on `*Oc1ccc(C(=O)c2cccc(NC(=O)CCCCCCCCC(=O)Nc3ccc(C(=O)c4ccc(*)cc4)cc3)c2)cc1` (repeat unit) yielded a glass transition temperature of 148.00 °C.
`*Oc1ccc(C2(c3ccc(OC(=O)CCCCCCC(*)=O)cc3)c3ccccc3-c3ccccc32)cc1` (repeat unit) gave a glass transition temperature of 158.00 °C.
Molecule `*Oc1ccc(C2(c3ccc(OC(=O)CCCCCCCCC(*)=O)cc3)c3ccccc3Cc3ccccc32)cc1` (repeat unit) has a glass transition temperature of 134.00 °C.
For `*Oc1ccc(C2(c3ccc(Oc4ccc(-c5ccc(NC(=O)c6cc(C(=O)Nc7ccc(-c8ccc(*)c(C(F)(F)F)c8)cc7)cc(C(C)(C)C)c6)cc5)cc4C(F)(F)F)cc3)c3ccccc3-c3ccccc32)cc1` (repeat unit), the glass transition temperature was 278.00 °C.
Molecule `*Oc1ccc(NC(=O)CCCCC(=O)Nc2ccc(OC3COC4C(*)COC34)cc2)cc1` (repeat unit) has a glass transition temperature of 150.00 °C.
In the case of `*Oc1ccc(NC(=O)CCCCCC(=O)Nc2ccc(*)cc2)cc1` (repeat unit), the glass transition temperature is reported as 180.00 °C.
`*Oc1ccc(NC(=O)CCCCCCC(=O)Nc2ccc(*)cc2)cc1` (repeat unit) showed a glass transition temperature of 180.00 °C.
For `*Oc1ccc(OC(=O)CCCCC(*)=O)cc1` (repeat unit), the glass transition temperature was 90.00 °C.
Molecule `*Oc1cccc(NC(=O)CCCCCCC(=O)Nc2ccc(*)cc2)c1` (repeat unit) has a glass transition temperature of 140.00 °C.
`*Oc1cccc(NC(=O)CCCCCCCC(=O)Nc2ccc(*)cc2)c1` (repeat unit) showed a glass transition temperature of 120.00 °C.
`*c1ccc(NC(=O)CCCCC(=O)Nc2ccc(S(*)(=O)=O)cc2)cc1` (repeat unit) showed a glass transition temperature of 194.00 °C.
`*c1ccc(NC(=O)CCCCCC(=O)Nc2ccc(S(*)(=O)=O)cc2)cc1` (repeat unit) showed a glass transition temperature of 163.00 °C.
Work on `*c1ccc(NC(=O)CCCCCCCCC(=O)Nc2ccc(S(*)(=O)=O)cc2)cc1` (repeat unit) yielded a glass transition temperature of 72.34 °C.
In the case of `*c1ccc(NC(=O)c2cc(NC(=O)c3ccc(OC(C)=O)cc3)cc(C(=O)Nc3ccc(-c4nnc(*)o4)cc3)c2)cc1` (repeat unit), the glass transition temperature is reported as 280.00 °C.
`*c1ccc2c(c1)C(=O)N(c1ccc(Cc3ccc(N4C(=O)c5ccc(C(C)(C)CCCCC(*)(C)C)cc5C4=O)cc3)cc1)C2=O` (repeat unit) gave a glass transition temperature of 169.90 °C.
With `*c1cccc(NC(=O)CCCCC(=O)Nc2cccc(S(*)(=O)=O)c2)c1` (repeat unit) the glass transition temperature was 140.00 °C.
`*c1cccc(NC(=O)CCCCCCCC(=O)Nc2cccc(S(*)(=O)=O)c2)c1` (repeat unit) gave a glass transition temperature of 125.00 °C.
Molecule `*c1cccc(NC(=O)CCCCCCCCC(=O)Nc2cccc(S(*)(=O)=O)c2)c1` (repeat unit) has a glass transition temperature of 112.00 °C.
